Active and inactive are the calls of the source. The rule behind the calls is not given here.
Assay: Inhibition of cAMP-specific 3',5'-cyclic phosphodiesterase

Row | Activity | SMILES
1 | Active | Nc1ncnc2c1ncn2[C@@H]1OC2=C[C@@](C(=O)O)(C(O)C(=O)O)O[C@H]2[C@H]1O (some centres undefined)
2 | Active | Nc1ncnc2c1ncn2[C@@H]1OC2=C[C@](CC(=O)O)(C(=O)O)O[C@H]2[C@H]1O
3 | Active | Nc1ncnc2c1ncn2[C@@H]1O[C@@H]2C[C@](CC(=O)O)(C(=O)O)O[C@H]2[C@H]1O
4 | inactive | Nc1ncnc2c1ncn2[C@@H]1O[C@H](C[C@@H](CC(=O)O)C(=O)O)[C@@H](O)[C@H]1O
